Data on two compounds can be found in ChEMBL document CHEMBL1130621, “Synthesis of a non-nucleoside reverse transcriptase inhibitor in the alkenyldiarylmethane (ADAM) series with optimized potency and therapeutic index” (Bioorg Med Chem Lett, 1998).

For experiment [1], the system named is MT4. Description: Compound was tested for the inhibition of cytopathic effect of HIV-1 6S in MT-4 cells. Type of experiment: functional, Homo sapiens.
For experiment [2], the system named is MT4. Description: Compound was tested for the inhibition of cytopathic effect of HIV-1 N119 in MT-4 cells. Type of experiment: functional, Homo sapiens.
Experiment [3] relates to CEM-SS. Briefly: Compound was tested for the prevention of cytopathic effect of HIV-1 RF in CEM-SS cells. The class given is functional, cell-based. To be noted: Homo sapiens.
For experiment [4], the system named is CEM-SS. Briefly: Compound was tested for cytotoxicity in uninfected CEM-SS cells. To be noted: Homo sapiens. Type of experiment: functional.

Consider `CCCCCC=C(c1cc(Br)c(OC)c(C(=O)OC)c1)c1cc(Br)c(OC)c(C(=O)OC)c1`, for which the Activity was 0.56 µM with MT4 [1] and 151 µM with MT4 [2].
`COC(=O)CCCC=C(c1cc(Cl)c(OC)c(C(=O)OC)c1)c1cc(Cl)c(OC)c(C(=O)OC)c1` returned an EC50 with CEM-SS [3] of 0.013 µM. In the experiment on CEM-SS [4], this compound had a CC50 of 31.6 µM.
